Test results taken from ChEMBL document CHEMBL5154758, “Structure-Activity Relationship Study of Indolin-5-yl-cyclopropanamine Derivatives as Selective Lysine Specific Demethylase 1 (LSD1) Inhibitors” (J Med Chem, 2022).
Activity calls are given as the source filed them. The rule behind the calls is not given here.

Columns and labels:
[1] = target: T1, Amine oxidase [flavin-containing] A (Homo sapiens, UniProt P21397); test: biochemical
T1 sequence (P21397 whole entry): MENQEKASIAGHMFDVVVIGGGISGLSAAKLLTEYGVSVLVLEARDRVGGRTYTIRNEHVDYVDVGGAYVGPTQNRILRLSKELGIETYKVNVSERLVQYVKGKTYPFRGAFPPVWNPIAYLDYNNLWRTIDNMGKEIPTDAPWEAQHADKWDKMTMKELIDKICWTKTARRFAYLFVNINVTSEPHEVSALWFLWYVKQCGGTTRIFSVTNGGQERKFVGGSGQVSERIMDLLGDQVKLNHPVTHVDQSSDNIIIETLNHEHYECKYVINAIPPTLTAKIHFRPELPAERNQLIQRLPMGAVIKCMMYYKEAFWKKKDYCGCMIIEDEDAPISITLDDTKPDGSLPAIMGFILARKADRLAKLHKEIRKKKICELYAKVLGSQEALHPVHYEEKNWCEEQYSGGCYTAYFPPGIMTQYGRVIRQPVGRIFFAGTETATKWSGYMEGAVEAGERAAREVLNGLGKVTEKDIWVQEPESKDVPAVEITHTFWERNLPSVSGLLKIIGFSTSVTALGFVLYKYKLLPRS
Description: Inhibition of human recombinant MAO-A expressed in baculovirus infected BTI insect cells using luminogenic MAO substrate incubated for 1 hr by luciferin-based luminescence assay

MV4-11 [2] = test: Antiproliferative activity against human MV4-11 cells assessed as inhibition of cell growth incubated for 240 hrs by MTS assay; type: functional, cell-based; conditions: MV4-11, 240 h
[3] = target: T2, Amine oxidase [flavin-containing] B (Homo sapiens, UniProt P27338); test: biochemical
T2 sequence (P27338 whole entry): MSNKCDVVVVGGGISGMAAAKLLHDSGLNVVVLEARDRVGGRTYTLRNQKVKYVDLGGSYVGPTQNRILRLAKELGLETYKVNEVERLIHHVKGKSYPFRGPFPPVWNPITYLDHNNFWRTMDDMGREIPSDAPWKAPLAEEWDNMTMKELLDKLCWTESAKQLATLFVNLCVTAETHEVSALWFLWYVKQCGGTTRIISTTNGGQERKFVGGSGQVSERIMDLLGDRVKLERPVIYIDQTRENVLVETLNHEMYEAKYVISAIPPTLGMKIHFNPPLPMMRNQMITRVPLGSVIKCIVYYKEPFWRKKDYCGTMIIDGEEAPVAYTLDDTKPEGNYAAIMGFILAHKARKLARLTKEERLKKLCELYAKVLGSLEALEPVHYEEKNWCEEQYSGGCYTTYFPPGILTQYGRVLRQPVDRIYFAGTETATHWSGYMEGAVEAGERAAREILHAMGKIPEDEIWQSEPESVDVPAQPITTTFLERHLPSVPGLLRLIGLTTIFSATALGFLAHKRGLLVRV
Description: Inhibition of human recombinant MAO-B expressed in baculovirus infected BTI insect cells using luminogenic MAO substrate incubated for 1 hr by luciferin-based luminescence assay

MV4-11 [4] = test: Activation of CD86 expression in human MV4-11 cells incubated for 24 hrs by qRT-PCR analysis; type: functional, cell-based; conditions: MV4-11, 24 h
[5] = Upregulation of CD86 expression in human MV4-11 cells assessed as fold change in CD86 expression at IC50 incubated for 24 hrs by qRT-PCR analysis relative to control; type: functional
RPMI-8226 = test: Antiproliferative activity against human RPMI-8226 cells assessed as inhibition of cell growth incubated for 240 hrs by MTS assay; type: functional, cell-based; conditions: RPMI-8226, 240 h
[6] = target: T1, Amine oxidase [flavin-containing] A; test: Inhibition of human MAOA
[7] = target: Lysine-specific histone demethylase 1A (Homo sapiens) (UniProt O60341); conditions: dose 300.0 nM, time 1.0 hrs
MV4-11 [8] = test: Induction of differentiation of human MV4-11 cells assessed as morphological changes by measuring segmented nucleus at 5 uM incubated for 240 hrs by Wright-Giemsa staining based microscopy; type: functional, cell-based
[9] = target: T3, Lysine-specific histone demethylase 2 (Homo sapiens, UniProt Q8NB78); test: Inhibition of human LSD2
T3 sequence (Q8NB78 whole entry): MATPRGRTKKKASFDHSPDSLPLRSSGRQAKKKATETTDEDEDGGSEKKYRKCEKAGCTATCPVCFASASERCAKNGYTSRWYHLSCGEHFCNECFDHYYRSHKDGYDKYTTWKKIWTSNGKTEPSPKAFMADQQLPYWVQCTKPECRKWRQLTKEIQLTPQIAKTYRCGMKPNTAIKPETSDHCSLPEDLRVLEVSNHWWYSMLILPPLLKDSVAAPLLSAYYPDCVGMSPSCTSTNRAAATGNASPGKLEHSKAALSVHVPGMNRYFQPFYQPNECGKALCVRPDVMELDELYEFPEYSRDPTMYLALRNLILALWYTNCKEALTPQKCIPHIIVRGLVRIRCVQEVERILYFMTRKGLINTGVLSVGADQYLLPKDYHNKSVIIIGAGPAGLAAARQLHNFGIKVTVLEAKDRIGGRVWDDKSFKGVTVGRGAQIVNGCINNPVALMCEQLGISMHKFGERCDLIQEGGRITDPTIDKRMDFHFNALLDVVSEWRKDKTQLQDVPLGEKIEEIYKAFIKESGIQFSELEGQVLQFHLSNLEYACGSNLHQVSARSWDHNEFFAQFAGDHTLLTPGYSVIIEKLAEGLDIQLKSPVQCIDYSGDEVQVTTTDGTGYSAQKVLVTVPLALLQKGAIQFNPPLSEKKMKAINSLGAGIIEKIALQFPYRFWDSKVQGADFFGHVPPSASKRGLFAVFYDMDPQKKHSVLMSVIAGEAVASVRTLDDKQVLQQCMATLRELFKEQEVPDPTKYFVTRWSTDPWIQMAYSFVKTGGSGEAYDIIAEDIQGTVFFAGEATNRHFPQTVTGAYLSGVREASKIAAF

[10] = target: T2, Amine oxidase [flavin-containing] B; test: Inhibition of human MAOB
MV4-11 [11] = test: Induction of differentiation of human MV4-11 cells assessed as morphological changes by measuring reduction in nuclear to cytoplasmic ratio at 5 uM incubated for 240 hrs by Wright-Giemsa staining based microscopy; type: functional, cell-based
[12] = target: T3, Lysine-specific histone demethylase 2; test: Inhibition of recombinant human full length LSD2 using biotinylated H3K4Me2 peptide as substrate by TR-FRET assay
[13] = target: T3, Lysine-specific histone demethylase 2; test: Inhibition of human LSD2 using H3K4Me2 peptide as substrate incubated for 60 min by peroxidase-coupled method

| Compound | IC50 [1] | IC50 [3] | further results |
| --- | --- | --- | --- |
| O=S(=O)(N1CCc2cc(C3CC3NCC3CCNCC3)ccc21)C(F)(F)F (trans isomer) | 8640 µM | – | – |
| CCC(=O)N1CCc2cc(C3CC3NCC3CCNCC3)ccc21 (trans isomer) | > 100 µM | > 100 µM | IC50 (MV4-11 [2]): 7.66 µM |
| O=C(O)c1ccc(CN2CCC(CN[C@@H]3C[C@H]3c3ccccc3)CC2)cc1 [GSK2879552] | > 100 µM | > 100 µM | IC50 (MV4-11 [2]): 1.19 µM; EC50 (MV4-11 [4]): 0.023 µM; fold change (FC) [5]: 10.15; IC50 (RPMI-8226): > 20 µM; IC50 [6]: > 100 µM; inhibition [7]: Active; Activity (MV4-11 [8]): Active; IC50 [9]: > 100 µM; IC50 [10]: > 100 µM; Activity (MV4-11 [11]): Active; IC50 [12]: > 100 µM |
| CC1(CNC2CC2c2ccc3c(c2)CCN3S(=O)(=O)c2ccccc2)CCNCC1 (trans isomer) | 100 µM | > 100 µM | – |
| O=S(=O)(c1ccccc1)N1CCc2cc(C3CC3NC3CC4(CCNCC4)C3)ccc21 (trans isomer) | > 100 µM | > 100 µM | – |
| O=S(=O)(c1ccccc1)N1CCc2cc(C3CC3NCCC3CCNCC3)ccc21 (trans isomer) | > 100 µM | > 100 µM | IC50 (MV4-11 [2]): 1.21 µM; IC50 (RPMI-8226): > 20 µM |
| O=C(Cc1ccccc1)N1CCc2cc(C3CC3NCC3CCNCC3)ccc21 (trans isomer) | > 100 µM | > 100 µM | – |
| O=S(=O)(c1ccc(-c2ccccc2)cc1)N1CCc2cc(C3CC3NCC3CCNCC3)ccc21 (trans isomer) | > 100 µM | – | – |
| CCCCC(=O)N1CCc2cc(C3CC3NCC3CCNCC3)ccc21 (configuration not stated) | > 100 µM | > 100 µM | – |
| COc1cccc(S(=O)(=O)N2CCc3cc(C4CC4NCC4CCNCC4)ccc32)c1 (trans isomer) | – | > 100 µM | – |
| N[C@@H]1C[C@H]1c1ccc(NC(=O)c2ccccc2)cc1 | – | – | Ki [13]: 61 µM |
